Laboratory results as given in patent publication US20250230193A1, “CYCLIC COMPOUND HAVING SELECTIVE KRAS INHIBITORY EFFECT ON HRAS AND NRAS” (CHUGAI SEIYAKU KABUSHIKI KAISHA, priority 2022, published 2025).

Experiments:
[1] = target: GDP-bound HRAS wild-type protein (Homo sapiens, UniProt P01112); experiment: Binding to HRAS by surface plasmon resonance (SPR), Single Cycle Kinetics; conditions: KD ratio, GDP-bound HRAS wild-type vs GDP-bound KRAS wild-type, SPR
[2] = target: GDP-bound NRAS wild-type protein (Homo sapiens, UniProt P01111); experiment: Binding to NRAS by surface plasmon resonance (SPR), Single Cycle Kinetics; conditions: KD ratio, GDP-bound NRAS wild-type vs GDP-bound KRAS wild-type, SPR
Sequence of GDP-bound NRAS wild-type protein (P01111 whole entry): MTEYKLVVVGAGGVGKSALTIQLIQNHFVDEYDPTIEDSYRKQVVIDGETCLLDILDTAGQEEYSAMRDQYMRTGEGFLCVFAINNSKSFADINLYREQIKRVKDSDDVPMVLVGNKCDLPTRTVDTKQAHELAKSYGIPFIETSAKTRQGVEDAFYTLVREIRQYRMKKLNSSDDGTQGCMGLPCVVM

Sequence of GDP-bound HRAS wild-type protein (P01112 whole entry): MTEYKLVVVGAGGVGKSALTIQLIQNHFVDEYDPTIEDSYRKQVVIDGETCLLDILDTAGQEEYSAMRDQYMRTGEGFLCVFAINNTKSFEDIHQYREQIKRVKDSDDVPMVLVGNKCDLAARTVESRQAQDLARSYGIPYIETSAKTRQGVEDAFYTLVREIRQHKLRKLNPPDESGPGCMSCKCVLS

SMILES	HRAS/KRAS (ratio of KD value with respect to HRAS to KD value with respect to KRAS) [1]	NRAS/KRAS (ratio of KD value with respect to NRAS to KD value with respect to KRAS) [2]
CCO[C@@H]1C[C@H]2C(=O)NC3(CCCC3)C(=O)N(C)[C@@H](C3CCCC3)C(=O)N(C)[C@H](C(=O)N3CCOCC3)CC(=O)N(C)[C@@H](COC)C(=O)N[C@@H]([C@@H](C)CC)C(=O)NCC(=O)N(C)[C@H]3CCCCCN(C3=O)[C@@H](Cc3ccc(C(F)(F)F)cc3)C(=O)N(C)CC(=O)N[C@@H](CCc3cc(F)c(C(F)(F)F)c(F)c3)C(=O)N2C1 [PP0862]	B (a compound having 3 or more and less than 10 is denoted as B)	B (a compound having 3 or more and less than 10 is denoted as B)
CCO[C@@H]1C[C@H]2C(=O)NC3(CCC3)C(=O)N(C)[C@@H](C3CCCC3)C(=O)N(C)[C@H](C(=O)N3CCOCC3)CC(=O)N(C)[C@@H](COC)C(=O)N[C@@H]([C@@H](C)CC)C(=O)N3CC[C@H]3C(=O)N(C)[C@H]3CCCCCN(C3=O)[C@@H](Cc3ccc(C(F)(F)F)cc3)C(=O)N(C)CC(=O)N[C@@H](CCc3cc(F)c(C(F)(F)F)c(F)c3)C(=O)N2C1 [PP0863]	B (a compound having 3 or more and less than 10 is denoted as B)	B (a compound having 3 or more and less than 10 is denoted as B)
CCO[C@@H]1C[C@H]2C(=O)NC3(CCC3)C(=O)N(C)[C@@H](C3CCCC3)C(=O)N(C)[C@H](C(=O)N(C)C)CC(=O)N(C)[C@@H](COC)C(=O)N[C@@H]([C@@H](C)CC)C(=O)N3CC[C@H]3C(=O)N(C)[C@H]3CCCCCN(C3=O)[C@@H](Cc3ccc(C(F)(F)F)cc3)C(=O)N(C)CC(=O)N[C@@H](CCc3cc(F)c(C(F)(F)F)c(F)c3)C(=O)N2C1 [PP0864]	B (a compound having 3 or more and less than 10 is denoted as B)	B (a compound having 3 or more and less than 10 is denoted as B)
CC[C@H](C)[C@@H]1NC(=O)[C@H](COC)N(C)C(=O)C[C@@H](C(=O)N2CCOCC2)N(C)C(=O)[C@H](C2CCCC2)N(C)C(=O)C2(CCC2)NC(=O)[C@@H]2CCCN2C(=O)[C@H](CCc2cc(F)c(C(F)(F)F)c(F)c2)NC(=O)CN(C)C(=O)[C@H](Cc2ccc(C(F)(F)F)cc2)N2CCCCC[C@@H](C2=O)N(C)C(=O)[C@@H]2CCN2C1=O [PP0865]	B (a compound having 3 or more and less than 10 is denoted as B)	B (a compound having 3 or more and less than 10 is denoted as B)
CC[C@H](C)[C@@H]1NC(=O)[C@H](COC)N(C)C(=O)C[C@@H](C(=O)N2CCOCC2)N(C)C(=O)[C@H](C2CCCC2)N(C)C(=O)C2(CCC2)NC(=O)[C@@H]2CC(F)(F)CN2C(=O)[C@H](CCc2cc(F)c(C(F)(F)F)c(F)c2)NC(=O)CN(C)C(=O)[C@H](Cc2ccc(C(F)(F)F)cc2)N2CCCCC[C@@H](C2=O)N(C)C(=O)[C@@H]2CCN2C1=O [PP0866]	B (a compound having 3 or more and less than 10 is denoted as B)	B (a compound having 3 or more and less than 10 is denoted as B)
CCO[C@@H]1C[C@H]2C(=O)NC3(CCCC3)C(=O)N(C)[C@@H](C3CCCC3)C(=O)N(C)[C@H](C(=O)N3CCOCC3)CC(=O)N(C)[C@@H](COC)C(=O)N[C@@H]([C@@H](C)CC)C(=O)N3CC[C@H]3C(=O)N(C)[C@H]3CCCCCN(C3=O)[C@@H](Cc3ccc(C(F)(F)F)cc3)C(=O)N(C)CC(=O)N[C@@H](CCc3cc(F)c(C(F)(F)F)c(F)c3)C(=O)N2C1 [PP0867]	B (a compound having 3 or more and less than 10 is denoted as B)	B (a compound having 3 or more and less than 10 is denoted as B)
CC[C@H](C)[C@@H]1NC(=O)[C@H](CC(C)C)N(C)C(=O)C[C@@H](C(=O)N2CCOCC2)N(C)C(=O)[C@H](C2CCCC2)N(C)C(=O)C2(CCC2)NC(=O)[C@@H]2C[C@@H](O)CN2C(=O)[C@H](CCc2cc(F)c(C(F)(F)F)c(F)c2)NC(=O)CN(C)C(=O)[C@H](Cc2ccc(C(F)(F)F)cc2)N2CCCC[C@@H](C2=O)N(C)C(=O)CN(C)C1=O [PP0868]	B (a compound having 3 or more and less than 10 is denoted as B)	C (A compound having a KD ratio of 0.1 or more and less than 3 is denoted as C)
CC[C@H](C)[C@@H]1NC(=O)[C@H](CC(C)C)N(C)C(=O)C[C@@H](C(=O)N2CCOCC2)N(C)C(=O)[C@H](C2CCCC2)N(C)C(=O)C2(CCC2)NC(=O)[C@@H]2[C@@H](O)CCN2C(=O)[C@H](CCc2cc(F)c(C(F)(F)F)c(F)c2)NC(=O)CN(C)C(=O)[C@H](Cc2ccc(C(F)(F)F)cc2)N2CCCC[C@@H](C2=O)N(C)C(=O)CN(C)C1=O [PP0869]	B (a compound having 3 or more and less than 10 is denoted as B)	B (a compound having 3 or more and less than 10 is denoted as B)
CC[C@H](C)[C@@H]1NC(=O)[C@H](CC(C)C)N(C)C(=O)C[C@@H](C(=O)N2CCOCC2)N(C)C(=O)[C@H](C2CCCC2)N(C)C(=O)C2(CCC2)NC(=O)[C@@H]2[C@H](O)CCN2C(=O)[C@H](CCc2cc(F)c(C(F)(F)F)c(F)c2)NC(=O)CN(C)C(=O)[C@H](Cc2ccc(C(F)(F)F)cc2)N2CCCC[C@@H](C2=O)N(C)C(=O)CN(C)C1=O [PP0870]	B (a compound having 3 or more and less than 10 is denoted as B)	B (a compound having 3 or more and less than 10 is denoted as B)
CC[C@H](C)[C@@H]1NC(=O)[C@H](CC(C)C)N(C)C(=O)C[C@@H](C(=O)N2CCOCC2)N(C)C(=O)[C@H](C2CCCC2)N(C)C(=O)C2(CCC2)NC(=O)[C@@H]2C[C@@H](O)CN2C(=O)[C@H](CCc2cc(F)c(C(F)(F)F)c(F)c2)NC(=O)CN(C)C(=O)[C@H](Cc2ccc(C(F)(F)F)cc2)N2CCCCC[C@@H](C2=O)N(C)C(=O)CN(C)C1=O [PP0871]	B (a compound having 3 or more and less than 10 is denoted as B)	B (a compound having 3 or more and less than 10 is denoted as B)
CC[C@H](C)[C@@H]1NC(=O)[C@H](CC(C)C)N(C)C(=O)C[C@@H](C(=O)N2CCOCC2)N(C)C(=O)[C@H](C2CCCC2)N(C)C(=O)C2(CCC2)NC(=O)[C@@H]2[C@@H](O)CCN2C(=O)[C@H](CCc2cc(F)c(C(F)(F)F)c(F)c2)NC(=O)CN(C)C(=O)[C@H](Cc2ccc(C(F)(F)F)cc2)N2CCCCC[C@@H](C2=O)N(C)C(=O)CN(C)C1=O [PP0872]	A (a compound having 10 or more and less than 20 is denoted as A)	A (a compound having 10 or more and less than 20 is denoted as A)
CC[C@H](C)[C@@H]1NC(=O)[C@H](CC(C)C)N(C)C(=O)C[C@@H](C(=O)N2CCOCC2)N(C)C(=O)[C@H](C2CCCC2)N(C)C(=O)C2(CCC2)NC(=O)[C@@H]2[C@H](O)CCN2C(=O)[C@H](CCc2cc(F)c(C(F)(F)F)c(F)c2)NC(=O)CN(C)C(=O)[C@H](Cc2ccc(C(F)(F)F)cc2)N2CCCCC[C@@H](C2=O)N(C)C(=O)CN(C)C1=O [PP0873]	B (a compound having 3 or more and less than 10 is denoted as B)	A (a compound having 10 or more and less than 20 is denoted as A)
